What was measured:
Kv12.1 (Elk1) [1] = target: T1, Kv12.1 (Elk1) (Homo sapiens, UniProt Q96L42); test: whole-cell patch clamp, steady-state outward current at […] mV; type: cell-based; settings: activator, pH 7.4, CHO cells, room temperature
T1 construct: gene KCNH8; full-length channel from pcDNA3.1-IRES-eGFP, transient expression in CHO dhFR- cells
T1 sequence (Q96L42 1-1107): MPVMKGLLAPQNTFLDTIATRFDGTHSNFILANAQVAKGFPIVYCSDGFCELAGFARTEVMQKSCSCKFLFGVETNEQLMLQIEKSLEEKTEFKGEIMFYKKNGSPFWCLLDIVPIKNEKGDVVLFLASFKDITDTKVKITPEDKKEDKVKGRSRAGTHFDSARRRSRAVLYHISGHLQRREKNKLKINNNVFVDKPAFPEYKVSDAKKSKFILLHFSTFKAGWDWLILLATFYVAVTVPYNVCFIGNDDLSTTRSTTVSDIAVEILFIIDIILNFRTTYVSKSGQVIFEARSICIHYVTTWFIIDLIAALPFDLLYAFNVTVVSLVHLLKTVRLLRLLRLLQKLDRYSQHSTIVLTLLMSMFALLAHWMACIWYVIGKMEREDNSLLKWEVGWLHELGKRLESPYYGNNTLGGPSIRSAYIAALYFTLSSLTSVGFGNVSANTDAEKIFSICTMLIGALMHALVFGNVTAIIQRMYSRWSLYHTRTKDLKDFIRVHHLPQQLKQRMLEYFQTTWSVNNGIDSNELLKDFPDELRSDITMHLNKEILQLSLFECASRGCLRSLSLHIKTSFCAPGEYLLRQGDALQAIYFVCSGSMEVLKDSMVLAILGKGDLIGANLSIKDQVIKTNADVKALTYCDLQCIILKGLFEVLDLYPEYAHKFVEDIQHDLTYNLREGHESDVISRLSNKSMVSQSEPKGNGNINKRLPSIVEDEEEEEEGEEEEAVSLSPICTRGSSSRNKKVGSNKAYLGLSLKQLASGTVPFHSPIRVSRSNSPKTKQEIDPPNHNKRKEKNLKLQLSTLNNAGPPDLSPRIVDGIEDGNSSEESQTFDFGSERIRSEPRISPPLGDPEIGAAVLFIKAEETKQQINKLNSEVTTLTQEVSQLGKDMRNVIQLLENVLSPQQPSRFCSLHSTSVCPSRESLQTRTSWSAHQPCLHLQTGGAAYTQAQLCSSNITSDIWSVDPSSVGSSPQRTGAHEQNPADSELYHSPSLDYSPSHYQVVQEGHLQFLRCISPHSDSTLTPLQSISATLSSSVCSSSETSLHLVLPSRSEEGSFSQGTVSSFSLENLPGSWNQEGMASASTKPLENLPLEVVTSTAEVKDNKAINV

Kv12.1 (Elk1) [2] = target: T1, Kv12.1 (Elk1); test: whole-cell patch clamp; type: cell-based; settings: weak inhibitor; 100 mM; n = 9; CHO cells, room temperature

| Structure (SMILES) | % potentiation at 3 mM (Kv12.1 (Elk1) [1]) | I100mM TEA/IStart (Kv12.1 (Elk1) [2]) |
| --- | --- | --- |
| Nc1cccnc1 [3-AP, 3-aminopyridine] | ~ 7% |  |
| CC[N+](CC)(CC)CC [TEA, tetraethylammonium] |  | 0.83 ± 0.01 |
